{"source": "paper PMC2824672", "about": "“Identification of inhibitors of Plasmodium falciparum phosphoethanolamine methyltransferase using an enzyme-coupled transmethylation assay” (2010)", "key": {"[1]": {"target": "T1, phosphoethanolamine methyltransferase, PfPMT (Plasmodium falciparum, UniProt Q8IDQ9)", "T1 construct": "gene PMT; recombinant 6His-tagged PfPMT (266 residues), 15N-labeled for NMR", "assay": "1H-15N HSQC NMR titration; also inhibition of purified enzyme in coupled assay", "format": "binding"}, "[2]": {"target": "T2, phosphoethanolamine methyltransferase, PfPMT (Plasmodium falciparum, UniProt Q8IDQ9)", "T2 sequence (Q8IDQ9 1-266)": "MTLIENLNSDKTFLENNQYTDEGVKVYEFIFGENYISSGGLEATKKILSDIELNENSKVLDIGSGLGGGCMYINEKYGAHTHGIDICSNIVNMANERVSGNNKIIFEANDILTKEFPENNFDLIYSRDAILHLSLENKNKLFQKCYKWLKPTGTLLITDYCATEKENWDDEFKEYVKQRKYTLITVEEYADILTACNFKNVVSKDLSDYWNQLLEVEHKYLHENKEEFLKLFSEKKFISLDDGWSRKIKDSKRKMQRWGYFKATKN", "assay": "1H-15N HSQC NMR titration (weak; no enzyme inhibition at […])", "format": "binding", "design": "gene PMT; recombinant 6His-tagged PfPMT, 15N-labeled for NMR"}, "[3]": {"target": "T2, phosphoethanolamine methyltransferase, PfPMT", "assay": "enzyme-coupled spectrophotometric methyltransferase assay", "format": "biochemical", "design": "gene PMT; recombinant purified PfPMT (pET-15b)"}, "[4]": {"target": "T2, phosphoethanolamine methyltransferase, PfPMT", "assay": "enzyme-coupled assay, substrate turnover by purified enzyme", "format": "biochemical", "design": "gene PMT; recombinant purified PfPMT (pET-15b)"}, "[5]": {"target": "T2, phosphoethanolamine methyltransferase, PfPMT", "assay": "enzyme-coupled assay, co-substrate turnover by purified enzyme", "format": "biochemical", "design": "gene PMT; recombinant purified PfPMT (pET-15b)"}}}
{"smiles": "CCN(CC)Cc1cc(Nc2ccnc3cc(Cl)ccc23)ccc1O", "note": "[AQ, amodiaquine]", "values": [{"measurement": "inhibition at 5 µM", "setting": "[1]", "result": 60, "unit": "%"}]}
{"smiles": "CCN(CC)CCCC(C)Nc1ccnc2cc(Cl)ccc12", "note": "(stereo not shown) [CQ, chloroquine]", "values": [{"measurement": "1H-15N HSQC NMR titration (weak; no enzyme inhibition at 200 μM)", "setting": "[2]", "result": "indicating site-specific binding, the affinity of CQ for PfPMT is much lower than that of AQ"}]}
{"smiles": "CCCCCCCCCCCC[N+](C)(C)C", "note": "[DDTA, Dodecyltrimethylammonium bromide]", "values": [{"measurement": "inhibition at 500 µM", "setting": "[3]", "result": 25, "unit": "%"}]}
{"smiles": "NCCOP(=O)(O)O", "note": "[P-EA, phosphoethanolamine]", "values": [{"measurement": "enzyme-coupled assay, substrate turnover by purified enzyme", "setting": "[4]", "result": "PfPMT activity increased proportionally to the concentration of these substrates"}]}
{"smiles": "CCCCCCCCCCCCCCCCOP(=O)([O-])OCC[N+](C)(C)C", "note": "[HePC, Miltefosine]", "values": [{"measurement": "inhibition at 100 µM", "setting": "[3]", "result": "~60", "unit": "%"}]}
{"smiles": "CCCCCCCCCCCCCCCC[N+](C)(C)C", "note": "[HDTA, Hexadecyltrimethylammonium bromide]", "values": [{"measurement": "inhibition at 100 µM", "setting": "[3]", "result": "~50", "unit": "%"}]}
{"smiles": "C[S+](CC[C@H](N)C(=O)[O-])C[C@H]1O[C@@H](n2cnc3c(N)ncnc32)[C@H](O)[C@@H]1O", "note": "(stereo partly shown) [SAM, S-adenosylmethionine]", "values": [{"measurement": "enzyme-coupled assay, co-substrate turnover by purified enzyme", "setting": "[5]", "result": "The effect of increasing concentrations of the substrate P-EA and co-substrate SAM on PfPMT activity was also measured."}]}
